From EP4810052A2, “HCRHR2 SELECTIVE POLYPEPTIDES” (Gubra A/S, priority 2023, dated 2026)
Starred links: 1 amine or outer side, 2 acyl side, 3 side chain; linkers in the order of their positions; H or OH if unused. Non-standard residues stand in square brackets, D forms with d. Residues, ends and D or L forms follow the SMILES beside them. Groups on a side chain read outwards from the residue. *: point of attachment. C20 diacid = O=C(O)CCCCCCCCCCCCCCCCCCC(=O)*; γGlu = O=C(O)[C@H](CCC(=O)[*:2])N[*:1]; Nle = CCCC[C@H](N)C(=O)O; AEEA = NCCOCCOCC(=O)O; Aib = CC(C)(N)C(=O)O

Tests used:
[1] = Thioflavin T fibril formation assay of purified peptides; type: physicochemical; design: key: Amyloid fibril formation detected by an increase in ThT fluorescence was denoted with "Yes"; samples without increasing ThT fluorescence hence not forming amyloid fibrils were denoted "No"; conditions: pH 7.5
Procedure: Thioflavin T fibril formation assay: Peptides were dissolved as 267 µM in 50 mM phosphate buffer pH 7.5 for 2 h at room temperature on a rocking table. The samples were then divided into three replicates of 80 µl/well and mixed with 2 µl/well Thioflavin T (ThT)to a final concentration of 4 µM ThT in a black 384 well microplate with a clear bottom (Greiner #781096). The plate was inserted in a CLARIOstar Plus microplate reader (BMG Labtech) and fibril formation was measured as an increase in fluorescence emission at 480 nm (excitation at 450 nm) during 96 h at 40°C with cycles of 5 min rest and 5 min linearshaking at700 rpm.
Compounds were dissolved to 200 µM (ca 1.0 mg/ml) in 50 mM phosphate buffer with preparation and ThT assay performed as described in the "General procedure for determination of fibril formation of peptides." above. Furthermore, samples were adjusted to pH values as indicated below. Additional co-formulations of compounds with semaglutide were prepared by dissolving compounds to 200 µM in commercially available semaglutide drug product (Ozempic®); these co-formulations were adjusted to pH 7.4.

hCRHR1 = biological target: T1, hCRHR1 (Homo sapiens, UniProt P34998); assay: HTRF cAMP assay, determination of hCRHR1 potency (peptide libraries 5 conc., purified peptides 11 conc.); type: cell-based; conditions: Table 5, purified peptides; read-out: hCRHR1 EC50
T1 sequence (P34998 24-415): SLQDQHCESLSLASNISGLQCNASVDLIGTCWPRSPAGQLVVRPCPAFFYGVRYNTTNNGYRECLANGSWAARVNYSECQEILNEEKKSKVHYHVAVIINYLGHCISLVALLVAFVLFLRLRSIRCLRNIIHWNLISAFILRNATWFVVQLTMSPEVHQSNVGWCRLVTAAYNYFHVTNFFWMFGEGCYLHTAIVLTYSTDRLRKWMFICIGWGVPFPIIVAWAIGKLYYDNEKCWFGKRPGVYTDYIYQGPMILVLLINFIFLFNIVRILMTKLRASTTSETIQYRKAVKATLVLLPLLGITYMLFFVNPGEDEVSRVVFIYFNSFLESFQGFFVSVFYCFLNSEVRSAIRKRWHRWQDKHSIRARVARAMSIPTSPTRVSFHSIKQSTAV
How it was run: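 CHO-K1 cells stably expressing human CRHR1, thawed from frozen stocks just before use, were stimulated in suspension with agonist peptides. cAMP was measured by HTRF competitive immunoassay (cryptate anti-cAMP antibody vs d2-cAMP).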

hCRHR2 = biological target: T2, hCRHR2 (Homo sapiens, UniProt Q13324); assay: HTRF cAMP assay, determination of hCRHR2 potency (peptide libraries 5 conc., purified peptides 11 conc.); type: cell-based; conditions: for Selectivity ratio (hCRHR1/ hCRHR2): Table 5; for EC50: Table 5, purified peptides, read-out: hCRHR2 EC50
T2 sequence (Q13324 1-411): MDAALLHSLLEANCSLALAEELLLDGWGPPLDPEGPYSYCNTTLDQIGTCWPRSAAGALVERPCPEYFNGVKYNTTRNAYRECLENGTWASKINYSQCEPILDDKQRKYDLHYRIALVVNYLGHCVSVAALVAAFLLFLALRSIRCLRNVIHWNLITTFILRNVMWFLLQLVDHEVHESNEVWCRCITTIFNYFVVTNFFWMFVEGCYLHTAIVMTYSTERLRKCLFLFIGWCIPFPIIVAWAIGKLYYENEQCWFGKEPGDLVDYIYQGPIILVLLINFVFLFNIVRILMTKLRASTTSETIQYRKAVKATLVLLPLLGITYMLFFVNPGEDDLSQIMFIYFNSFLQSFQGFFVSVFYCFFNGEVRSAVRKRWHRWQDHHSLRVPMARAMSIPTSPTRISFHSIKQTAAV
How it was run: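 CHO-K1 cells stably expressing human CRHR2, thawed from frozen stocks just before use and run in suspension; cAMP measured by competitive HTRF immunoassay (cryptate anti-cAMP, d2-cAMP). Agonist peptides tested at 5 (libraries) or 11 (purified) concentrations; EC50 from sigmoid variable-slope nonlinear regression.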

[2] = Chemical stability of purified peptides (RP-UHPLC main peak purity loss); type: physicochemical; conditions: 40°C; for Chemical stability at pH 7.5 after 14 days at 40°C (% degradation): pH 7.5, 14 days; for Chemical stability at pH 7.5 after 28 days at 40°C (% degradation): pH 7.5, 28 days
Procedure: Chemical stability was tested at a concentration of approximately of 1.0 mg/ml peptide in the following vehicles: 50 mM phosphate buffer pH 7.5. Dissolved samples were incubated for at least 2 h at room temperature on a rocking table. The main peak purity at time zero (T0) was determined using reversed phase chromatography. The samples were incubated at 40°C for 14 days (T14) and 28 days (T28). The samples were analyzed with reversed phase chromatography and size exclusion chromatography.
Reversed Phase chromatography was performed on a Thermo Dionex Ultimate UHPLC system with UV detection at 215 nm) and equipped with a Kinetex column (1.7 µm, C8, 100 Å, 150 x 2.1 mm (00F-4499-AN)). Analysis was performed by gradient elution with buffer A (0.1% TFA in 95:5 H2O:acetonitrile) and buffer B (0.1% TFA in 5:95 H2O: acetonitrile) at a column temperature of 50 °C (gradient used 25-55%B over 40 min. Flowrate was 0.5 mL/min. The main peak purity was determined from the integrated chromatogram as the area under the main peak relative to the total peak area. The purity loss was calculated as the difference between the T0 and T14 time point and/or as the difference between the T0 and T28 time point.
The chemical stability of selected peptides was evaluated at varying pH's at 40° C over 28 days. Samples were prepared and analysed as described in procedure with the addition of pH adjusting samples to the targets indicated below. As a comparator,r commercially available semaglutide drug product (Ozempic®, Novo Nordisk) was included in the sample set.

[3] = pH 7.5

Fibrillation (pH 7.5) [1]	EC50 (hCRHR1) [nM]	Selectivity ratio (hCRHR1/ hCRHR2) (hCRHR2)	EC50 (hCRHR2) [nM]	Chemical stability at pH 7.5 after 14 days at 40°C (% degradation) [2] [%]	Chemical stability at pH 7.5 after 28 days at 40°C (% degradation) [2] [%]	Solubility pH 7.5, target conc. =10 mg/mL (measured mg/mL) [3] [mg/mL]	SMILES
No	> 5000	>5556	0.9	-1.9	-2.2	11	CCCC[C@H](NC(=O)[C@@H](NC(=O)[C@H](CCC(=O)O)NC(=O)[C@H](C)NC(=O)[C@H](CC(N)=O)NC(=O)[C@H](CCC(=O)O)NC(=O)[C@H](CCCCNC(=O)COCCOCCNC(=O)COCCOCCNC(=O)CC[C@H](NC(=O)CC[C@H](NC(=O)CCCCCCCCCCCCCCCCCCC(=O)O)C(=O)O)C(=O)O)NC(=O)[C@H](C)NC(=O)[C@H](CCC(N)=O)NC(=O)[C@H](CCC(=O)O)NC(=O)[C@H](CCCNC(=N)N)NC(=O)[C@H](C)NC(=O)[C@H](C)NC(=O)[C@H](CCCNC(=N)N)NC(=O)[C@H](C)NC(=O)[C@H](CCCNC(=N)N)NC(=O)[C@H](C)NC(=O)[C@H](CCC(N)=O)NC(=O)[C@H](CO)NC(=O)[C@H](CC(C)C)NC(=O)[C@H](CC(C)C)NC(=O)[C@@H](NC(=O)[C@H](CCC(N)=O)NC(=O)[C@H](CC(C)C)NC(=O)[C@H](CC(C)C)NC(=O)CNC(=O)[C@@H](NC(=O)[C@@H]1CCCN1C(=O)[C@@H](NC(=O)[C@H](CC(=O)O)NC(=O)[C@H](CC(C)C)NC(=O)[C@H](CO)NC(=O)[C@H](CC(C)C)NC(=O)[C@@H](NC(=O)[C@@H](N)[C@@H](C)CC)C(C)C)C(C)C)[C@@H](C)CC)[C@@H](C)CC)[C@@H](C)CC)C(=O)N[C@@H](C)C(=O)N[C@@H](CCC(=O)O)C(=O)N[C@H](C(N)=O)C(C)C [compound 239] (H-IVLSLDVPIGLLQILLSQARARAAREQAK([AEEA-AEEA-γGlu-γGlu-C20 diacid])ENAEI[Nle]AEV-NH2)
No	> 5000	>7463	0.67	-1	-3	10	CCCC[C@H](NC(=O)[C@@H](NC(=O)[C@H](CCC(=O)O)NC(=O)[C@H](C)NC(=O)[C@H](CC(N)=O)NC(=O)C(C)(C)NC(=O)[C@H](CCCCNC(=O)COCCOCCNC(=O)COCCOCCNC(=O)CC[C@H](NC(=O)CC[C@H](NC(=O)CCCCCCCCCCCCCCCCCCC(=O)O)C(=O)O)C(=O)O)NC(=O)[C@H](C)NC(=O)[C@H](CCC(N)=O)NC(=O)[C@H](CCC(=O)O)NC(=O)[C@H](CCCNC(=N)N)NC(=O)[C@H](C)NC(=O)[C@H](C)NC(=O)[C@H](CCCNC(=N)N)NC(=O)[C@H](C)NC(=O)[C@H](CCCNC(=N)N)NC(=O)[C@H](C)NC(=O)[C@H](CCC(N)=O)NC(=O)[C@H](CCC(=O)O)NC(=O)[C@H](CC(C)C)NC(=O)[C@H](CC(C)C)NC(=O)[C@@H](NC(=O)[C@H](CCC(N)=O)NC(=O)[C@H](CC(C)C)NC(=O)[C@H](CC(C)C)NC(=O)CNC(=O)[C@@H](NC(=O)[C@@H]1CCCN1C(=O)[C@@H](NC(=O)[C@H](CC(=O)O)NC(=O)[C@H](CC(C)C)NC(=O)[C@H](CO)NC(=O)[C@H](CC(C)C)NC(=O)[C@@H](NC(=O)[C@@H](N)[C@@H](C)CC)C(C)C)C(C)C)[C@@H](C)CC)[C@@H](C)CC)[C@@H](C)CC)C(=O)N[C@@H](C)C(=O)N[C@@H](CCC(=O)O)C(=O)N[C@H](C(N)=O)[C@@H](C)CC [compound 236] (H-IVLSLDVPIGLLQILLEQARARAAREQAK([AEEA-AEEA-γGlu-γGlu-C20 diacid])[Aib]NAEI[Nle]AEI-NH2)
